Test results from patent publication US10526316B2, “Quinoxaline and pyridopyrazine derivatives as PI3Kβ inhibitors” (Janssen Pharmaceutica NV, priority 2015, dated 2020).
Read-outs that look alike come from different tables or passages of the source.

Tests used:
PI3Kβ = molecular target: T1, PI3Kβ (Homo sapiens, UniProt P42338); experiment: Enzyme binding assay (KINOMEscan, DiscoveRx); conditions: PIK3Cβ_h, read-out: Kd PIK3Cβ_h
T1 construct: purchased DiscoveRx Corporation, San Diego (contract service, KINOMEscan)
Outline: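 Values are Kd in nM, the binding constant of each inhibitor for the kinase, obtained from a KINOMEscan enzyme binding assay.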

PI3Kδ = molecular target: T2, PI3Kδ (Homo sapiens, UniProt O00329); experiment: Enzyme binding assay (KINOMEscan, DiscoveRx); conditions: PIK3Cδ_h
T2 construct: purchased DiscoveRx Corporation, San Diego (contract service, KINOMEscan)
T2 sequence (O00329 1-1044): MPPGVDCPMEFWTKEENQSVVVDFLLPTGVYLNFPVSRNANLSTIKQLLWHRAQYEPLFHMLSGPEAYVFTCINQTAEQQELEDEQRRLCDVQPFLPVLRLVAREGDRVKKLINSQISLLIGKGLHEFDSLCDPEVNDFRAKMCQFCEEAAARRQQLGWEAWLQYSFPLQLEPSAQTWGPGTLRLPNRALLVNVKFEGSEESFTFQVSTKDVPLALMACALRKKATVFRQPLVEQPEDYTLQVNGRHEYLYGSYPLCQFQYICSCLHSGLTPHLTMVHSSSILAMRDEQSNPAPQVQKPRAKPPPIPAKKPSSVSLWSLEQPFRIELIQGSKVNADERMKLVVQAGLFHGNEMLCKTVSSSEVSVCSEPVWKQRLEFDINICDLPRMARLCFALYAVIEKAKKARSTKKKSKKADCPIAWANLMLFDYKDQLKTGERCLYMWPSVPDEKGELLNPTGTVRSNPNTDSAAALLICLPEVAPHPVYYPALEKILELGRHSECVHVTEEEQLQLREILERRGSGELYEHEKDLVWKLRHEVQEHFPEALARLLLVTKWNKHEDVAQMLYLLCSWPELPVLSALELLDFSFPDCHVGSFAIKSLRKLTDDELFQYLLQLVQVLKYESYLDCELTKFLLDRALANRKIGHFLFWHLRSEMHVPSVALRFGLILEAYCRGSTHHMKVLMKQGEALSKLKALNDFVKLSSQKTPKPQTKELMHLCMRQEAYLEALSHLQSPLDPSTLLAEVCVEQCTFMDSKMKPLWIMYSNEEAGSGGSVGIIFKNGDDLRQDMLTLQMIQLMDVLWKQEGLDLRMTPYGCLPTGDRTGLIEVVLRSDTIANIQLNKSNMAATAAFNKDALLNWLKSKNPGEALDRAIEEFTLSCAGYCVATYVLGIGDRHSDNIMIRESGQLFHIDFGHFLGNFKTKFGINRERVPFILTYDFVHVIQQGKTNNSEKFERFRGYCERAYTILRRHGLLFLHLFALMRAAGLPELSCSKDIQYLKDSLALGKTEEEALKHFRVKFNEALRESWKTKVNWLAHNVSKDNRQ
Outline: (§1)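 Affinity for each kinase was determined by KINOMEscan profiling.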

kinase enzymes [1] = molecular target: T3, kinase enzymes (Homo sapiens, UniProt P42336); experiment: Enzyme binding assay (KINOMEscan, DiscoveRx), further kinases of Table A; conditions: PIK3Cα_h
T3 construct: purchased DiscoveRx Corporation, San Diego (contract service, KINOMEscan)
Outline: as §1

kinase enzymes [2] = molecular target: T4, kinase enzymes (Homo sapiens, UniProt P42345); experiment: as above; conditions: MTOR_h
T4 construct: purchased DiscoveRx Corporation, San Diego (contract service, KINOMEscan)
Outline: as §1

kinase enzymes [3] = molecular target: T5, kinase enzymes (Homo sapiens, UniProt P48736); experiment: as above; conditions: PIK3Cγ_h
T5 construct: purchased DiscoveRx Corporation, San Diego (contract service, KINOMEscan)
Outline: as §1

[4] = test system: Akt phosphorylated at Ser473 in PC-3 cells; experiment: Cellular assay: phosphorylation of Akt at Ser473 in PC-3 cells (MSD ELISA); format: cell-based; conditions: PC-3 cells, 60 min compound incubation, MSD ELISA, read-out: IC50 pAkt_S473
Outline: (§2)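 After lysis of treated cells (60 min, 37° C, 0.3% DMSO), phospho-Akt levels were measured by MSD electrochemiluminescence ELISA. Potency was derived from concentration-response curves fitted over five concentrations.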

[5] = test system: Akt phosphorylated at Thr308 in PC-3 cells; experiment: Cellular assay: phosphorylation of Akt at Thr308 in PC-3 cells (MSD ELISA); format: cell-based; conditions: PC-3 cells, 60 min compound incubation, MSD ELISA, read-out: IC50 pAkt_Thr308
Outline: as §2

T5 sequence (P48736 whole entry): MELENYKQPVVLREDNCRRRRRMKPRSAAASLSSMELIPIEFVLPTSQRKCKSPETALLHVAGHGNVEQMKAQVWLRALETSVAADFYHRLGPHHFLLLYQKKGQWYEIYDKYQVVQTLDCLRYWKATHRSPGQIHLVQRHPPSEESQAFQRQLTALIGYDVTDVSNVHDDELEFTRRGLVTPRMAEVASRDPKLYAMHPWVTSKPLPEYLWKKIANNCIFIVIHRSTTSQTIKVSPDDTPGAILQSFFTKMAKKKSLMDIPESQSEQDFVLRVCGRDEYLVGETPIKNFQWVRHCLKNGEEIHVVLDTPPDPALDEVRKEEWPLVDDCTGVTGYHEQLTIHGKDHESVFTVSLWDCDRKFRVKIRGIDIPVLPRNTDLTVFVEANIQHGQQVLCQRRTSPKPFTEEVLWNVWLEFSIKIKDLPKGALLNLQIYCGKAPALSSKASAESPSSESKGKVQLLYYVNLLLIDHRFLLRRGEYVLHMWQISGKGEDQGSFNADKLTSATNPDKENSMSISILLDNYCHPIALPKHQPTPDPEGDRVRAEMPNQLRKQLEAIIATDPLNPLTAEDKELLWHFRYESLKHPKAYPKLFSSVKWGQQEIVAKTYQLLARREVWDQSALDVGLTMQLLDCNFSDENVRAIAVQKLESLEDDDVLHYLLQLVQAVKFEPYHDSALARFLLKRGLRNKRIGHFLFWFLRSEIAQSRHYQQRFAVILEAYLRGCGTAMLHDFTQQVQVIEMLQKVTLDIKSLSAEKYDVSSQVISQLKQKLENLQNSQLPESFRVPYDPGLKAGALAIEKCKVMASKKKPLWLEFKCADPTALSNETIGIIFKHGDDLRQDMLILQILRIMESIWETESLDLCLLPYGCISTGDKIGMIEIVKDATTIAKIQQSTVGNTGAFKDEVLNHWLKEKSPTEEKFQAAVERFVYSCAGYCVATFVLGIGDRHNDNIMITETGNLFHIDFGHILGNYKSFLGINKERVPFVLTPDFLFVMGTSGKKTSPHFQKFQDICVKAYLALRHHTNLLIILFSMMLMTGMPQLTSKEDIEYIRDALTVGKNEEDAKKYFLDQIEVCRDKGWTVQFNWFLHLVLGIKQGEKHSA
T1 sequence (P42338 whole entry): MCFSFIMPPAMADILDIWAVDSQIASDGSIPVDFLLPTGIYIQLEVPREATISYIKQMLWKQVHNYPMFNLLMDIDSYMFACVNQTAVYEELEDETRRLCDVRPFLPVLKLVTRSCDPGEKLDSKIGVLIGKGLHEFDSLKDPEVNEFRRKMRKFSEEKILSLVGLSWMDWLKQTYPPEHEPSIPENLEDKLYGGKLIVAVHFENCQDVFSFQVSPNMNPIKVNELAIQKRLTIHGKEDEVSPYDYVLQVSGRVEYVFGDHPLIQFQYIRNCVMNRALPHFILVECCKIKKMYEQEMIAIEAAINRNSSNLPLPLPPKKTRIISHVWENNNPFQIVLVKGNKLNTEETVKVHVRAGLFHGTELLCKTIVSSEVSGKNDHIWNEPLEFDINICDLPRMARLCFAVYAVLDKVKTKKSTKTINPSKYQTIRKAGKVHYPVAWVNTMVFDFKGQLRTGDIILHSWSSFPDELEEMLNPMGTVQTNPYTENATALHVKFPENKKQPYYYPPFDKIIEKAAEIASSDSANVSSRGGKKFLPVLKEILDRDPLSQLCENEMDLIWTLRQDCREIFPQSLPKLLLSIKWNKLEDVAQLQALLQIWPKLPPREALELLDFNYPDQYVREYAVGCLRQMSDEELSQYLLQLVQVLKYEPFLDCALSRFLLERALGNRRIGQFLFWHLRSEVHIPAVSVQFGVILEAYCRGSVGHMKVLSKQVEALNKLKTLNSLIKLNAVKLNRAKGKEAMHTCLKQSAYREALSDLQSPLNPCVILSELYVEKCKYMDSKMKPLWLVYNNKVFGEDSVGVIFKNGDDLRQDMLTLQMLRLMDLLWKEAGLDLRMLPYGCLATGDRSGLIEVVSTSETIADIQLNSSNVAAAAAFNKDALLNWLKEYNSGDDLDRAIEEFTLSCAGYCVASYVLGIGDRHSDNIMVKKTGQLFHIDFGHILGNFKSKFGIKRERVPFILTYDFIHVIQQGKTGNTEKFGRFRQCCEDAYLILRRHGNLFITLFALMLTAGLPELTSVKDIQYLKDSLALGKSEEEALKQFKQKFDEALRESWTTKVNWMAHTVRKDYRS
T3 sequence (P42336 whole entry): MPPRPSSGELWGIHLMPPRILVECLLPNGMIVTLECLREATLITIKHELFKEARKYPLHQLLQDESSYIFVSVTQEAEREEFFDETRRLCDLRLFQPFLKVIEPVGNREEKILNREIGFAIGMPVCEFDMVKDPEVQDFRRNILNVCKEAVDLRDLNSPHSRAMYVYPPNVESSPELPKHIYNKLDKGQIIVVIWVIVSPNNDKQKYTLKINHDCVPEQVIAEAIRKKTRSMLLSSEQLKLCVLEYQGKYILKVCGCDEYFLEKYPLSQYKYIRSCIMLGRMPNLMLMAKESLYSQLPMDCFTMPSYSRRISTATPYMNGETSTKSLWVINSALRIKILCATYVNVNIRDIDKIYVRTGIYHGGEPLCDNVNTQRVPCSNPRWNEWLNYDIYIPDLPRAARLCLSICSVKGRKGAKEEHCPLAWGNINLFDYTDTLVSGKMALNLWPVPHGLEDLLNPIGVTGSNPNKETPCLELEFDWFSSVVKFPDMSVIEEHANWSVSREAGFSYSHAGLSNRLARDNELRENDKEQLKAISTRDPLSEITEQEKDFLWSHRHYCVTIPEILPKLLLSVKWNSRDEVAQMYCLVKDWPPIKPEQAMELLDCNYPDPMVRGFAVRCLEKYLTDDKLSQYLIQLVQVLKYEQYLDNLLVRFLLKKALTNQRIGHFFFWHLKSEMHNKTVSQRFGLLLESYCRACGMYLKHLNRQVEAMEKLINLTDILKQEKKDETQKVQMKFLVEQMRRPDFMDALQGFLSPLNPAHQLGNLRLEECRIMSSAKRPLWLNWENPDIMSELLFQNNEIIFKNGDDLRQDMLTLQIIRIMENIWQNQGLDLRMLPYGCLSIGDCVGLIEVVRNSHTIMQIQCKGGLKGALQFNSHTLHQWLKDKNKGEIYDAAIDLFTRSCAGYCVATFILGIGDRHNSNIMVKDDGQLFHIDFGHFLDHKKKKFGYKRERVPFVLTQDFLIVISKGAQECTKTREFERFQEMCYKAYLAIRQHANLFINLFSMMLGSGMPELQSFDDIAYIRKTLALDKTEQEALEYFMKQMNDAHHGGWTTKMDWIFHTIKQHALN

SMILES	Kd (PI3Kβ)	Kd (PI3Kδ)	Kd (kinase enzymes [1])	Kd (kinase enzymes [2])	Kd (kinase enzymes [3])	IC50 [4]	IC50 [5]	melting point	IC50 ([4]; Homo sapiens, PC-3, 1 h)	IC50 ([5]; Homo sapiens, PC-3, 1 h)
O=C(c1cc(C2CCCN2c2cc(F)cc(F)c2)c2nc(N3CCOCC3)cnc2c1)N1CCS(=O)(=O)CC1 (single isomer, unassigned) [Compound 38]	0.4 nM	6 nM	3 nM	> 30200 nM	933 nM	~0.8 nM	1 nM	146 °C	–	–
CNC(=O)c1cc(C2CCCN2c2cc(F)cc(F)c2)c2nc(N3CCOCC3)cnc2c1 (single isomer, unassigned) [Compound 40]	1 nM	35 nM	56 nM	17400 nM	309 nM	–	–	80 °C	7 nM	4 nM
O=C(c1cc(C2CCCN2c2cc(F)cc(F)c2)c2nc(N3CCOCC3)cnc2c1)N1CCS(=O)(=O)CC1 (single isomer, unassigned) [Compound 43]	316 nM	7240 nM	4680 nM	> 30200 nM	1100 nM	> 513 nM	331 nM	80 °C	–	–
O=C(c1cc(C2CCCN2c2cc(F)cc(F)c2)c2nc(N3CCOCC3)cnc2c1)N1CC2(COC2)C1 (single isomer, unassigned) [Compound 47]	0.2 nM	32 nM	41 nM	14800 nM	759 nM	–	–	80 °C	3 nM	4 nM
CN1CCN(C(=O)c2cc(C3CCCN3c3cc(F)cc(F)c3)c3nc(N4CCOCC4)cnc3c2)CC1 (single isomer, unassigned) [Compound 57]	0.4 nM	31 nM	49 nM	25100 nM	525 nM	~5 nM	4 nM	80 °C	–	–
C[C@H](CO)NC(=O)c1cc(C2CCCN2c2cc(F)cc(F)c2)c2nc(N3CCOCC3)cnc2c1 (single isomer, unassigned) [Compound 70]	2 nM	148 nM	339 nM	19100 nM	1100 nM	–	–	80 °C	~45 nM	23 nM
OC[C@@H]1CCCN1Cc1cc(C2CCCN2c2cc(F)cc(F)c2)c2nc(N3CCOCC3)cnc2c1 (single isomer, unassigned) [Compound 77]	0.3 nM	100 nM	363 nM	> 30200 nM	646 nM	–	–	80 °C	~76 nM	~51 nM
CC(Nc1cc(F)cc(F)c1)c1cc(C(=O)O)cc2ncc(N3CCOCC3)nc12 (single isomer, unassigned) [Compound 83b]	1 nM	129 nM	170 nM	1290 nM	562 nM	–	–	180 °C	> 513 nM	> 513 nM
CC(Nc1cc(F)cc(F)c1)c1cc(C(=O)O)cc2ncc(N3CCOCC3)nc12 (single isomer, unassigned) [Compound 83c]	158 nM	4900 nM	3090 nM	3090 nM	2690 nM	> 513 nM	> 513 nM	157 °C	–	–
CC(Oc1cccc(F)c1)c1cc(C(=O)N2CCC[C@H]2CO)cc2ncc(N3CCOCC3)nc12 (single isomer, unassigned) [Compound 86]	15 nM	537 nM	3470 nM	> 30200 nM	21400 nM	–	–	76 °C	513 nM	263 nM
CC(Oc1cccc(F)c1)c1cc(C(=O)N2CCC[C@H]2CO)cc2ncc(N3CCOCC3)nc12 (single isomer, unassigned) [Compound 87]	1380 nM	9550 nM	22900 nM	> 30200 nM	> 30200 nM	> 513 nM	> 513 nM	74 °C	–	–
OC(CN1CCC1)c1cc(C2CCCN2c2cc(F)cc(F)c2)c2nc(N3CCOCC3)cnc2c1 (single isomer, unassigned) [Compound 94]	0.1 nM	29 nM	79 nM	21400 nM	178 nM	8 nM	–	80 °C	–	12 nM
OCCCNCc1cc(C2CCCN2c2cc(F)cc(F)c2)c2nc(N3CCOCC3)cnc2c1 (single isomer, unassigned) [Compound 102]	0.2 nM	31 nM	245 nM	> 30200 nM	398 nM	–	–	80 °C	22 nM	23 nM
Cc1cc(C2CCCN2c2cc(F)cc(F)c2)c2nc(N3CCOCC3)cnc2c1 (single isomer, unassigned) [Compound 106]	6 nM	1000 nM	3160 nM	> 30200 nM	3310 nM	105 nM	62 nM	80 °C	–	–
Cc1cc(C2CCCN2c2cc(F)cc(F)c2)c2nc(N3CCOCC3)cnc2c1 (single isomer, unassigned) [Compound 107]	363 nM	23400 nM	> 30200 nM	> 30200 nM	> 30200 nM	> 513 nM	> 513 nM	80 to 90 °C	–	–
CCN1CCN(C(=O)c2cc(C(C)Nc3cccc(F)c3)c3nc(N4CCOCC4)cnc3c2)CC1 (single isomer, unassigned) [Compound 113]	1020 nM	> 30200 nM	> 30200 nM	> 30200 nM	> 10000 nM	> 513 nM	> 513 nM	307 °C	–	–
CCN1CCN(C(=O)c2cc(C(C)Nc3cccc(F)c3)c3nc(N4CCOCC4)cnc3c2)CC1 (single isomer, unassigned) [Compound 114]	1 nM	186 nM	1620 nM	> 30200 nM	6920 nM	50 nM	18 nM	303 °C	–	–
CC(Nc1cccc(F)c1)c1cc(C(=O)N2CCC[C@H]2CO)cc2ncc(N3CCOCC3)nc12 (single isomer, unassigned) [Compound 116]	2880 nM	≥ 30200 nM	> 30200 nM	> 30200 nM	> 30200 nM	> 513 nM	> 513 nM	332 °C	–	–
Cc1cccc(N(C)C(C)c2cc(C(=O)N(C)C)cc3ncc(N4CCOCC4)nc23)c1 (single isomer, unassigned) [Compound 127]	32 nM	2290 nM	6460 nM	25700 nM	21900 nM	–	–	80 °C	~457 nM	331 nM
CNCCN(C)C(=O)c1cc(C(C)Nc2cc(F)cc(F)c2)c2nc(N3CCOCC3)cnc2c1 (single isomer, unassigned) [Compound 137]	0.1 nM	9 nM	138 nM	> 30200 nM	501 nM	1 nM	1 nM	80 °C	–	–
